Assay results: paper PMC8286840, “Identifying SARS-CoV-2 antiviral compounds by screening for small molecule inhibitors of Nsp3 papain-like protease” (Biochemical Journal, 2021)
Counter-ions that a name gives are not always drawn. Like-named read-outs stand apart in the source and are kept apart here.

Columns and labels:
[1] = target: T1, SARS-CoV-2 PLpro (nsp3 1564–1878) (Severe acute respiratory syndrome coronavirus 2, UniProt P0DTD1); test: biochemical; design: FRET-quenched peptide (Pro3) cleavage by PLpro, 10 min pre-incubation, slope over 20 min, normalised to no-compound control; conditions: low concentration screen, read-out: % of control remaining
[2] = target: T1, SARS-CoV-2 PLpro (nsp3 1564–1878); test: biochemical; design: FRET-quenched peptide (Pro3) cleavage by PLpro, 10 min pre-incubation, slope over 20 min, normalised to no-compound control; conditions: high concentration screen, read-out: % of control remaining

CCC1(c2ccccc2)NC(=O)N(C)C1=O (centres unmarked) [Mephenytoin]
remaining activity at 1.25 µM ([1]; Well no.=1774): 99.1%
remaining activity at 3.75 µM ([2]; Well no.=1774): 99.4%

Cc1cccc(C)c1NC(=O)C1CCCCN1C (centres unmarked) [Mepivacaine HCl]
remaining activity at 1.25 µM ([1]; Well no.=4981): 99.3%
remaining activity at 3.75 µM ([2]; Well no.=4981): 101%

C[C@H]1C[C@H]2[C@@H]3CCC4=CC(=O)C=C[C@]4(C)[C@H]3C(=O)C[C@]2(C)[C@@]1(O)C(=O)CO [Meprednisone]
remaining activity at 1.25 µM ([1]; Well no.=6509): 101%
remaining activity at 3.75 µM ([2]; Well no.=6509): 102%

CCC1(c2cccc(O)c2)CCCCN(C)C1 (centres unmarked) [Meptazinol (hydrochloride)]
remaining activity at 1.25 µM ([1]; Well no.=6511): 102%
remaining activity at 3.75 µM ([2]; Well no.=6511): 98.2%

CCC1(c2cccc(O)c2)CCCCN(C)C1 (centres unmarked) [Meptazinol HCl]
remaining activity at 1.25 µM ([1]; Well no.=4636): 93.5%
remaining activity at 3.75 µM ([2]; Well no.=4636): 90.6%

COc1ccc(CN(CCN(C)C)c2ccccn2)cc1 [Mepyramine maleate]
remaining activity at 1.25 µM ([1]; Well no.=1843): 98.2%
remaining activity at 3.75 µM ([2]; Well no.=1843): 98.2%

COc1ccc(O)cc1 [Mequinol]
remaining activity at 1.25 µM ([1]; Well no.=4736): 100%
remaining activity at 3.75 µM ([2]; Well no.=4736): 99.8%

S=c1[nH]cnc2nc[nH]c12 [Mercaptopurine]
remaining activity at 1.25 µM ([1]; Well no.=4771): 104%
remaining activity at 3.75 µM ([2]; Well no.=4771): 105%

C[C@@H](O)[C@H]1C(=O)N2C(C(=O)O)=C(S[C@@H]3CN[C@H](C(=O)N(C)C)C3)[C@H](C)[C@H]12 [Meropenem]
remaining activity at 1.25 µM ([1]; Well no.=1973): 103%
remaining activity at 3.75 µM ([2]; Well no.=1973): 103%

CN1CCCCC1CCN1c2ccccc2Sc2ccc([S+](C)[O-])cc21 (centres unmarked) [Mesoridazine besylate]
remaining activity at 1.25 µM ([1]; Well no.=2110): 97.7%
remaining activity at 3.75 µM ([2]; Well no.=2110): 99.5%

C#C[C@]1(O)CC[C@H]2[C@@H]3CCc4cc(OC)ccc4[C@H]3CC[C@@]21C [Mestranol]
remaining activity at 1.25 µM ([1]; Well no.=4768): 101%
remaining activity at 3.75 µM ([2]; Well no.=4768): 102%

CN1C[C@@H](NS(=O)(=O)N(C)C)C[C@@H]2c3cccc4c3c(cn4C)C[C@H]21 [Mesulergine hydrochloride]
remaining activity at 1.25 µM ([1]; Well no.=897): 106%
remaining activity at 3.75 µM ([2]; Well no.=897): 105%

Cc1ncc(CO)c(CO)c1O [Metadoxine]
remaining activity at 1.25 µM ([1]; Well no.=8662): 96.1%
remaining activity at 3.75 µM ([2]; Well no.=8662): 93.3%

S=C=Nc1cccc(C2(N3CCCCC3)CCCCC2)c1 [Metaphit methanesulfonate]
remaining activity at 1.25 µM ([1]; Well no.=991): 98.8%
remaining activity at 3.75 µM ([2]; Well no.=991): 98.9%

CC(C)NCC(O)c1cc(O)cc(O)c1 (centres unmarked) [Metaproterenol hemisulfate]
remaining activity at 1.25 µM ([1]; Well no.=826): 104%
remaining activity at 3.75 µM ([2]; Well no.=826): 100%

C[C@H](N)[C@H](O)c1cccc(O)c1 [Metaraminol (tartrate)]
remaining activity at 1.25 µM ([1]; Well no.=6417): 103%
remaining activity at 3.75 µM ([2]; Well no.=6417): 99.6%

CN1C[C@H](CNC(=O)OCc2ccccc2)C[C@@H]2c3cccc4c3c(cn4C)C[C@H]21 [Metergoline]
remaining activity at 1.25 µM ([1]; Well no.=782): 99.4%
remaining activity at 3.75 µM ([2]; Well no.=782): 100%

CN(C)C(=N)NC(=N)N [Metformin HCl]
remaining activity at 1.25 µM ([1]; Well no.=8430): 94.8%
remaining activity at 3.75 µM ([2]; Well no.=8430): 94.9%

CN(C)C(=N)NC(=N)N [Metformin]
remaining activity at 1.25 µM ([1]; Well no.=1627): 103%
remaining activity at 3.75 µM ([2]; Well no.=1627): 103%

CC(=O)OC(C)C[N+](C)(C)C (centres unmarked) [Methacholine (chloride)]
remaining activity at 1.25 µM ([1]; Well no.=6323): 100%
remaining activity at 3.75 µM ([2]; Well no.=6323): 98.1%

CC(=O)/N=c1/sc(S(N)(=O)=O)nn1C [Methazolamide]
remaining activity at 1.25 µM ([1]; Well no.=4686): 100%
remaining activity at 3.75 µM ([2]; Well no.=4686): 98.7%

C1N2CN3CN1CN(C2)C3 [Methenamine (Mandelamine)]
remaining activity at 1.25 µM ([1]; Well no.=4975): 96.3%
remaining activity at 3.75 µM ([2]; Well no.=4975): 96.7%

COc1cccc(OC)c1C(=O)N[C@@H]1C(=O)N2[C@@H]1SC(C)(C)[C@@H]2C(=O)O [Methicillin (sodium salt)]
remaining activity at 1.25 µM ([1]; Well no.=7448): 100%
remaining activity at 3.75 µM ([2]; Well no.=7448): 99.6%

Cn1ccnc1S [Methimazole]
remaining activity at 1.25 µM ([1]; Well no.=1961): 92.6%
remaining activity at 3.75 µM ([2]; Well no.=1961): 94.6%

CSc1ccc2c(c1)C(N1CCN(C)CC1)Cc1ccccc1S2 (centres unmarked) [Methiothepin mesylate]
remaining activity at 1.25 µM ([1]; Well no.=801): 99.9%
remaining activity at 3.75 µM ([2]; Well no.=801): 101%

COc1ccccc1OCC(O)COC(N)=O (centres unmarked) [Methocarbamol]
remaining activity at 1.25 µM ([1]; Well no.=8238): 98%
remaining activity at 3.75 µM ([2]; Well no.=8238): 94.6%

COc1ccccc1CNCCCCCCNCCCCCCCCNCCCCCCNCc1ccccc1OC [Methoctramine tetrahydrochloride]
remaining activity at 1.25 µM ([1]; Well no.=1085): 102%
remaining activity at 3.75 µM ([2]; Well no.=1085): 102%

COC(C)(C)CCCC(C)C/C=C/C(C)=C/C(=O)O (centres unmarked) [Methoprene acid]
remaining activity at 1.25 µM ([1]; Well no.=4438): 98.3%
remaining activity at 3.75 µM ([2]; Well no.=4438): 100%

CN(Cc1cnc2nc(N)nc(N)c2n1)c1ccc(C(=O)N[C@@H](CCC(=O)O)C(=O)O)cc1 [Methotrexate]
remaining activity at 1.25 µM ([1]; Well no.=69): 94.1%
remaining activity at 1.25 µM ([1]; Well no.=7352): 94.4%
remaining activity at 3.75 µM ([2]; Well no.=69): 95.5%
remaining activity at 3.75 µM ([2]; Well no.=7352): 97.6%

COc1ccc(OC)c([C@@H](O)[C@H](C)N)c1 [Methoxamine hydrochloride]
remaining activity at 1.25 µM ([1]; Well no.=980): 100%
remaining activity at 3.75 µM ([2]; Well no.=980): 101%

CNC(C)Cc1ccccc1OC (centres unmarked) [Methoxyphenamine (Hydrochloride)]
remaining activity at 1.25 µM ([1]; Well no.=8577): 109%
remaining activity at 3.75 µM ([2]; Well no.=8577): 105%

C[N+]1(C)[C@@H]2C[C@@H](OC(=O)[C@H](CO)c3ccccc3)C[C@H]1[C@@H]1O[C@@H]12 [Methscopolamine (bromide)]
remaining activity at 1.25 µM ([1]; Well no.=8297): 97.7%
remaining activity at 3.75 µM ([2]; Well no.=8297): 96.8%

CCc1c(C(=O)OC)ncc2[nH]c3cc(OC)c(OC)cc3c12 [Methyl 6,7-dimethoxy-4-ethyl-beta-carboline-3-carboxylate]
remaining activity at 1.25 µM ([1]; Well no.=703): 97.5%
remaining activity at 3.75 µM ([2]; Well no.=703): 95.4%

COC(=O)c1cc2c(cn1)[nH]c1ccccc12 [Methyl beta-carboline-3-carboxylate]
remaining activity at 1.25 µM ([1]; Well no.=607): 95.4%
remaining activity at 3.75 µM ([2]; Well no.=607): 98.2%

CO[C@]1(CC[C@@H](C)CO[C@@H]2O[C@H](CO)[C@@H](O)[C@H](O)[C@H]2O)O[C@H]2C[C@H]3[C@@H]4CC=C5C[C@@H](O[C@@H]6O[C@H](CO)[C@@H](O[C@@H]7O[C@@H](C)[C@H](O)[C@@H](O)[C@H]7O)[C@H](O)[C@H]6O[C@@H]6O[C@@H](C)[C@H](O)[C@@H](O)[C@H]6O)CC[C@]5(C)[C@H]4CC[C@]3(C)[C@H]2[C@@H]1C [Methyl protodioscin]
remaining activity at 1.25 µM ([1]; Well no.=6208): 101%
remaining activity at 3.75 µM ([2]; Well no.=6208): 93.7%

COC(=O)c1ccccc1O [Methyl salicylate]
remaining activity at 1.25 µM ([1]; Well no.=1716): 102%
remaining activity at 3.75 µM ([2]; Well no.=1716): 101%
